# Results reported in paper PMC11335211, “In vivo photocontrol of orexin receptors with a nanomolar light-regulated analogue of orexin-B” (Cellular and Molecular Life Sciences: CMLS, 2024).
# *1 amine or outer side, *2 acyl side, *3 side chain or, on linkers, in order; H or OH if unused. Where a SMILES comes first, the peptide text is derived from it. [ ]: non-standard residue; d: D form. X1 = O=C(Cc1cccc(N=Nc2cccc(CN[*:1])c2)c1)[*:2]
# How the values were obtained:
# [1] = Resistance to photofatigue; type: physicochemical; settings: several UV (365 nm)/blue (455 nm) cycles of 3 min; 25 µM in PBS pH 7.4, 25 °C; UPLC
# Experimental: Stability to photodegradation was evaluated by exposing a phOX sample (25 µM in PBS at pH 7.4 and 25 °C) to alternating intervals (3 min each) of UV and visible light illumination (365 and 455 nm, respectively). The trans-cis isomeric distributions under different illumination conditions were measured by integrating the area of the corresponding peaks after UPLC analysis. These values were then converted to isomer percentages and plotted. After several cycles, no reduction could be observed in the isomers’ peak area, thus confirming photorexin stability to photodegradation.
# [2] = biological target: T1, human OX1 (Homo sapiens, UniProt O43613); experiment: FLIPR Tetra calcium mobilization assay, CHO-K1 cells; type: cell-based
# T1 construct: expressed in transfected cells
# T1 sequence (O43613 1-425): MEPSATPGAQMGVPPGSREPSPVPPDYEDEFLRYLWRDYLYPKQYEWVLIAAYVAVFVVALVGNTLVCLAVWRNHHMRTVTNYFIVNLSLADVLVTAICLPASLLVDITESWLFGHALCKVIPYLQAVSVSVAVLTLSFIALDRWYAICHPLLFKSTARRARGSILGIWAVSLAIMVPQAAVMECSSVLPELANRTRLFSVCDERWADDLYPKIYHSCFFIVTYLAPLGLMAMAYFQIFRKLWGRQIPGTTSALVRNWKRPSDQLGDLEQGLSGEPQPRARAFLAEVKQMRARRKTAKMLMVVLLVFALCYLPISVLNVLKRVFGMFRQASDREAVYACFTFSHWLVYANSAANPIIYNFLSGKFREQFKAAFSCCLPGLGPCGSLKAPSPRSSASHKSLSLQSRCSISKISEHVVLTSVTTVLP
# Experimental: (§1) Samples of trans phOX were kept in the dark both prior to and during the whole duration of the experiment to avoid undesired photoconversion caused by environmental light. Unless differently stated, data for cis phOX were obtained by pre-illuminating the samples for 10 min with 365 nm UV light.
# (§2) PFSK-1 cells were cultured in RPMI 1640 supplemented with 10% fetal bovine serum (FBS), 100 units/ml penicillin, and 100 µg/ml streptomycin. Chinese hamster ovary-K1 (CHO-K1) cells stably transfected to express human OX1 were cultured in Dulbecco’s Modified Eagle’s Medium/Nutrient Mixture F-12 Ham (DMEM/F12 1:1) medium supplemented with 10% FBS and 600 µg/ml G418. All cell lines were grown at 37 °C in 5% CO2.
# (§3) Cells were plated at 50,000 cells/well in 96-well black-wall plates with poly-D-lysine-coated clear bottoms and grown overnight at 37 °C in 5% CO2. […] Calcium-mediated changes in fluorescence were monitored in a Fluorometric Imaging Plate Reader (FLIPR) Tetra instrument (Molecular Devices, USA). Fluorescence intensity was measured for 12 s to establish baseline fluorescence before addition of the test compound (20 µL/well) and further readings for a total of 155 s (excitation at 470–495 nm, detection at 515–575 nm). […]
# (§4) Raw data from the FLIPR Tetra was exported as the difference between maximum and minimum fluorescence observed for each well. […] Agonist potencies (EC50) are expressed as means + SD.
# [3] = biological target: T2, hOX2 (Homo sapiens, UniProt O43614); experiment: FLIPR Tetra calcium mobilization assay, PFSK-1 cells; type: cell-based
# T2 sequence (O43614 1-444): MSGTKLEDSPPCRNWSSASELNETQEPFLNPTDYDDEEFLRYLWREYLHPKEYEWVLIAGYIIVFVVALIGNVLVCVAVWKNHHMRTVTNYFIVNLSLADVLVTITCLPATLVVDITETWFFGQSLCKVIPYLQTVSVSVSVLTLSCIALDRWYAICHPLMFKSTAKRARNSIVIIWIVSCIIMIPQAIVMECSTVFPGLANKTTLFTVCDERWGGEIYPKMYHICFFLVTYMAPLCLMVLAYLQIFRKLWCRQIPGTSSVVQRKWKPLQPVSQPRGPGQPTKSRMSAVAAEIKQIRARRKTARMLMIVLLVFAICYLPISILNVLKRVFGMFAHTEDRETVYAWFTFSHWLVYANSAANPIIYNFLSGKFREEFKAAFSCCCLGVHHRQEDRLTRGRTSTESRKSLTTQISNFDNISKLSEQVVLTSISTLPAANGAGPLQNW
# Experimental: as §1, §2, §3, §4
# [4] = biological target: T2, hOX2; experiment: In vitro single-cell calcium imaging, tsA201-hOX2; type: cell-based; design: expressed in transfected cells; host or cells: tsA201 (transformed human kidney cells), transient, co-transfected with R-GECO1; settings: 100 nM, AUC normalized to dark-adapted phOX, mean, n = 20 cells
# Experimental: Transformed human kidney tsA201 cells were purchased from the European Collection of Authenticated Cell Culture. Cells were maintained at 37 °C in a humidified atmosphere with 5% CO2 and grown in Dulbecco’s Modified Eagle’s Medium/Nutrient Mixture F-12 Ham (DMEM/F12 1:1) medium (Life Technologies), supplemented with 10% FBS (Life Technologies) and 1% penicillin/streptomycin (Sigma-Aldrich).
# Clones of GFP-labelled orexin receptors were kindly provided by Prof. Jyrki Kukkonen and the exact protein sequences have been reported by Putula et al.. The plasmid for the genetically encoded calcium indicator R-GECO1 was acquired from Addgene. Cells were transiently transfected with hOX1 or hOX2 receptors and R-GECO1 with X-tremeGENE 9 DNA Transfection Reagent (Roche Applied Science) following the manufacturer’s instructions. After 24 h, cells were harvested with accutase (Sigma-Aldrich) and plated onto 16-mm glass coverslips (Fisher Scientific) pre-treated with poly-L-Lysine (Sigma-Aldrich) to allow cell adhesion. Experiments were performed using pre-confluent cultures between 48 and 72 h after transfection. […]
# Images were analyzed using FIJI (ImageJ). Data were analyzed and processed using GraphPad Prism v8.3.1. Statistical differences were determined by one-way ANOVA followed by Tukey’s multiple comparison post-hoc test. […]
# [5] = system: OX2; settings: in words; cited from earlier work
# Description: Among these, a family of neuroexcitatory peptides known as orexins (or hypocretins) is critically involved in regulating sleep and wakefulness, energy homeostasis, and reward. Orexin signaling is mediated by two closely related G protein-coupled receptors (GPCRs) – OX1 and OX2 (orexin) receptors – which are strongly conserved among mammals. While orexin cell bodies are concentrated in the hypothalamic area, orexin receptors are widely expressed in the central nervous system (CNS). Their endogenous ligands are two peptides, named ...
# [6] = system: OX1 receptor; settings: membrane-based binding assay; ref Langmead et al., 5 (SI); cited from earlier work
# Description: Although the lack of binding with all three forms of OX-B - including the native ligand control - came unexpected, similar findings had already been observed for the OX1 receptor.
# [7] = design: method as in 2 sources, one per row (each row's own in cited_ref): ref 75–77 = [75]; PMID 10087007; 75. Kastin AJ Akerstrom V Orexin A but not orexin B rapidly enters brain from blood by simple diffusion J Pharmacol Exp Ther 1999 289 219 223 10087007 || [76]; PMID 12626669; doi:10.1113/jphysiol.2002.038729; 76. John J Wu M-F Kodama T Siegel JM Intravenously administered hypocretin-1 alters brain amino acid release: an in vivo microdialysis study in rats J Physiol 2003 548 557 562 10.1113/jphysiol.2002.03 || [77]; PMID 14746374; doi:10.1093/sleep/26.8.953; 77. Fujiki N Yoshida Y Ripley B Mignot E Nishino S Effects of IV and ICV hypocretin-1 (orexin A) in hypocretin receptor-2 gene mutated narcoleptic dogs and IV hypocretin-1 replacement therapy in a hyp ||| ref 75 = [75]; PMID 10087007; 75. Kastin AJ Akerstrom V Orexin A but not orexin B rapidly enters brain from blood by simple diffusion J Pharmacol Exp Ther 1999 289 219 223 10087007; settings: cited from earlier work
# [8] = design: method as in PMID 10087007; settings: cited from earlier work
# [9] = biological target: T2, hOX2; experiment: Radioligand competitive binding assay ([3H]EMPA); design: expressed in transfected cells; membranes; settings: control ligands; HEK-293-hOX2 membranes, [3H]EMPA 2 nM, 60 min rt, 10^-9 to 10^-6 M; two independent experiments in triplicates
# Description: The affinity towards OX2 was studied in a competitive radioligand binding assay on membranes derived from HEK-293 cells stably transfected with the human receptor. [^3H]EMPA, an OX2-selective orthosteric antagonist, was used as radioactive tracer to quantify residual binding after competitive displacement in the presence of the unlabeled ligands.^3 Wild-type OX-B and almorexant, a non-selective OX1 and OX2 antagonist, served as controls.^4
# [^3H]EMPA (specific activity 27 Ci/mmol) and almorexant were synthesized at Janssen Research & Development LLC (San Diego, CA), while orexin-B was obtained from Bachem (Torrance, CA).
# Cell membranes were prepared from a stable pool of HEK-293 cells transfected with the human OX2. Test compounds were dissolved in DMSO (10 mM stock solutions) and diluted in Dulbecco’s phosphate-buffered saline supplemented with 0.1% bovine serum albumin (BSA). Competition studies were performed by incubating the membranes with the OX2-selective antagonist [^3H]EMPA (2 nM) and different concentrations of the test compounds (7 concentrations ranging from 10^−9 to 10^−6 M). After a 60-minute incubation at rt, binding reactions were filtered to separate the excess of free ligand from the membranes. Filters were then counted for radioactivity in a scintillation counter. Nonspecific binding was determined in the presence of 10 µM almorexant.
# Specific binding was determined and plotted as a function of the concentration of the compound using GraphPad Prism v8.3.1 (GraphPad Software, San Diego, USA). Data were analyzed by nonlinear regression using a one-site competition model.
Compound,degradation or bleaching over light cycles [1],"potency ([2]; CHO-K1-hOX1, FLIPR, in words)","potency ([3]; PFSK-1, hOX2, FLIPR, in words)","retained activity under UV, relative to dark-adapted peptide ([4]; 365 nm (cis-enriched)) [%]","recovery of calcium response under blue light, relative to initial response ([4]; 455 nm after UV) [%]","increase in calcium release (agonist activity) ([2]; CHO-K1 cells stably expressing hOX1, 0.3 nM to 1 µM, two independent experiments in triplicates)","increase in calcium release (agonist activity) ([3]; PFSK-1 cells innately expressing hOX2, 0.3 nM to 1 µM, two independent experiments in triplicates)",receptor selectivity [5],occupation of OX1 orthosteric site versus [3H]SB-674042 [6],metabolism [7],lipophilicity relative to OX-A [8],inhibition of [3H]EMPA binding [9]
CC[C@H](C)[C@H](NC(=O)CNC(=O)[C@H](C)NC(=O)[C@H](C)NC(=O)Cc1cccc(N=Nc2cccc(CNC(=O)CNC(=O)[C@H](CO)NC(=O)[C@H](C)NC(=O)[C@H](CCC(N)=O)NC(=O)[C@H](CC(C)C)NC(=O)[C@H](CC(C)C)NC(=O)[C@H](CCCNC(=N)N)NC(=O)[C@H](CCC(N)=O)NC(=O)[C@H](CC(C)C)NC(=O)[C@H](CCCNC(=N)N)NC(=O)CNC(=O)[C@H](CCC(N)=O)NC(=O)[C@H](CC(C)C)NC(=O)CN)c2)c1)C(=O)N[C@@H](CC(C)C)C(=O)N[C@H](C(=O)N[C@@H](CCSC)C(N)=O)[C@@H](C)O [photorexin] (H-GLQGRLQRLLQASG[X1]AAGILTM-NH2),without significant degradation or bleaching,high nanomolar potency,high nanomolar potency,6,52,–,–,–,–,–,–,–
"OX-B: endogenous orexin peptide, native ligand control, obtained from Bachem",–,–,–,–,–,increased calcium release in a concentration-dependent manner,increased calcium release in a concentration-dependent manner,selective for OX2,failed to occupy the receptor orthosteric site,readily metabolized,not as lipophilic,did not compete to bind to the receptor
